Assay results: US8952024B2, “Herbicidal pyrimidone derivatives” (E I du Pont de Nemours and Company, priority 2009, dated 2015)

Tests used:
Experiment in all cases: Test B pre-/postemergence plant response
Type in all cases: in vivo
[1] = tested on: morningglory (Ipomoea coccinea); conditions: Postemergence
In short: (§1)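 Pre-em in loam/sand; post-em at 1–4 leaf (2–18 cm) in peat mix. Solvent + surfactant formulation. Greenhouse 13–15 d; visual % control vs untreated, 0–100.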

[2] = tested on: johnsongrass (Sorghum halepense); conditions: Postemergence
In short: as §1

[3] = tested on: Surinam grass (Brachiaria decumbens); conditions: Postemergence
In short: as §1

[4] = tested on: lambsquarters (Chenopodium album); conditions: Postemergence
In short: as §1

[5] = tested on: large crabgrass (Digitaria sanguinalis); conditions: Postemergence
In short: as §1

soybean (Glycine max) = conditions: Postemergence
In short: as §1

corn (Zea mays) = conditions: Postemergence
In short: as §1

[6] = tested on: downy bromegrass (Bromus tectorum); conditions: for Plant response rating, Bromegrass, Downy: Postemergence
In short: as §1

[7] = tested on: goosegrass (Eleusine indica); conditions: Postemergence
In short: as §1

[8] = tested on: pigweed (Amaranthus retroflexus); conditions: Postemergence
In short: as §1

kochia (Kochia scoparia) = conditions: Postemergence
In short: as §1

[9] = tested on: blackgrass (Alopecurus myosuroides); conditions: for Plant response rating, Blackgrass: Postemergence
In short: as §1

[10] = tested on: velvetleaf (Abutilon theophrasti); conditions: Postemergence
In short: as §1

[11] = tested on: yellow nutsedge (Cyperus esculentus); conditions: Postemergence
In short: as §1

[12] = tested on: woolly cupgrass (Eriochloa villosa); conditions: Postemergence
In short: as §1

wild oat (Avena fatua) = conditions: Postemergence
In short: as §1

[13] = tested on: green foxtail (Setaria viridis); conditions: Postemergence
In short: as §1

[14] = 31 g ai/ha, 0 to 100 scale (0 no effect, 100 complete control)
[15] = 125 g ai/ha, scale 0 to 100 (0 no effect, 100 complete control)
[16] = 250 g ai/ha, scale 0 to 100 (0 no effect, 100 complete control), 13 to 15 days
[17] = 62 g ai/ha, postemergence, 0 is no effect, 100 is complete control, 13 to 15 days

In the case of `O=C1CCCC(O)=C1C(=O)c1cnc(C2CC2)n(C2CCCCC2)c1=O` [Compound 160], the “Plant response rating, Morningglory” value [1, 14] is reported as 75, the “Plant response rating, Morningglory” value [1, 15] is reported as 100 and the “Plant response rating, Morningglory” value [1, 16] is reported as 100. The “Plant response rating, Johnsongrass” value [2, 14] was 45, the “Plant response rating, Johnsongrass” value [2, 15] was 65 and the “Plant response rating, Johnsongrass” value [2, 16] was 75. For the same compound, the “Plant response rating, Surinam Grass” value [3, 14] was 40, the “Plant response rating, Surinam Grass” value [3, 15] was 60 and the “Plant response rating, Surinam Grass” value [3, 16] was 75. For the same compound, the “Plant response rating, Lambsquarters” value [4, 14] was 95, the “Plant response rating, Lambsquarters” value [4, 15] was 98 and the “Plant response rating, Lambsquarters” value [4, 16] was 98. The “Plant response rating, Crabgrass, Large” value [5, 14] was 80, the “Plant response rating, Crabgrass, Large” value [5, 15] was 95 and the “Plant response rating, Crabgrass, Large” value [5, 16] was 95. For the same compound, the “Plant response rating, Soybean” value (soybean (Glycine max); [14]) was 85, the “Plant response rating, Soybean” value (soybean (Glycine max); [15]) was 98 and the “Plant response rating, Soybean” value (soybean (Glycine max); [16]) was 98. For the same compound, the “Plant response rating, Corn” value (corn (Zea mays); [14]) was 15, the “Plant response rating, Corn” value (corn (Zea mays); [15]) was 50 and the “Plant response rating, Corn” value (corn (Zea mays); [16]) was 60. The “Bromegrass, Downy plant response rating (0 to 100 scale)” value [6, 17] was 5, the “Plant response rating, Bromegrass, Downy” value [6, 14] was 0 and the “Plant response rating, Bromegrass, Downy” value [6, 15] was 50. For the same compound, the “Plant response rating, Bromegrass, Downy” value [6, 16] was 55, the “Plant response rating, Goosegrass” value [7, 14] was 80 and the “Plant response rating, Goosegrass” value [7, 15] was 90. The “Plant response rating, Goosegrass” value [7, 16] was 90, the “Plant response rating, Pigweed” value [8, 14] was 90 and the “Plant response rating, Pigweed” value [8, 15] was 100. For the same compound, the “Plant response rating, Pigweed” value [8, 16] was 100, the “Plant response rating, Kochia” value (kochia (Kochia scoparia); [14]) was 90 and the “Plant response rating, Kochia” value (kochia (Kochia scoparia); [15]) was 100. The “Plant response rating, Kochia” value (kochia (Kochia scoparia); [16]) was 100, the “Blackgrass plant response rating (0 to 100 scale)” value [9, 17] was 10 and the “Plant response rating, Blackgrass” value [9, 14] was 5. For the same compound, the “Plant response rating, Blackgrass” value [9, 15] was 20, the “Plant response rating, Blackgrass” value [9, 16] was 25 and the “Plant response rating, Velvetleaf” value [10, 14] was 90. For the same compound, the “Plant response rating, Velvetleaf” value [10, 15] was 100, the “Plant response rating, Velvetleaf” value [10, 16] was 100 and the “Plant response rating, Nutsedge, Yellow” value [11, 14] was 65. For the same compound, the “Plant response rating, Nutsedge, Yellow” value [11, 15] was 80, the “Plant response rating, Nutsedge, Yellow” value [11, 16] was 80 and the “Plant response rating, Cupgrass, Woolly” value [12, 14] was 65. The “Plant response rating, Cupgrass, Woolly” value [12, 15] was 85, the “Plant response rating, Cupgrass, Woolly” value [12, 16] was 95 and the “Plant response rating, Oat, Wild” value (wild oat (Avena fatua); [14]) was 10. For the same compound, the “Plant response rating, Oat, Wild” value (wild oat (Avena fatua); [15]) was 50, the “Plant response rating, Oat, Wild” value (wild oat (Avena fatua); [16]) was 60 and the “Plant response rating, Foxtail, Green” value [13, 14] was 55. For the same compound, the “Plant response rating, Foxtail, Green” value [13, 15] was 70 and the “Plant response rating, Foxtail, Green” value [13, 16] was 98.
